{"source": "patent US12492422B2", "about": "“Ex vivo protease activity detection for disease detection/diagnostic, staging, monitoring and treatment” (Sunbird Bio, Inc., priority 2020, dated 2025)", "key": {"caspase activity": {"tested_on": "caspase activity", "assay": "Ex vivo probe cleavage in plasma of Jo2 fulminant hepatitis model", "type": "biochemical, mouse", "conditions": "plasma 3 hours after Jo2 injection", "protocol": "Fulminant hepatitis is induced after injection intraperitoneal of monoclonal antibody anti-CD95 (Jo2, BD biosciences, 4 ug/animal), and mouse plasma samples were collected 3 hours after Jo2 injection.\nThe comparison with mass spectrometry data also aligns and confirms high concordance with the ex vivo approach, which is reassuring to confirm the existence of a biologically relevant signal."}, "COVID-related proteases [1]": {"tested_on": "COVID-related proteases", "assay": "Ex vivo probe cleavage in K2EDTA and Lithium Heparin plasma, COVID vs healthy", "type": "biochemical", "conditions": "K2EDTA and LiHeparin plasma cohorts"}, "[2]": {"tested_on": "cathepsin and/or MMP protease activities", "assay": "Ex vivo probe cleavage in plasma: healthy, NASH regression, NASH progression", "type": "biochemical, mice", "conditions": "K2EDTA plasma at 20 weeks", "text": "Plasma samples were collected from all animals at 20 weeks.\nThe probes showing the most differentiation in NASH were linked to cathepsin and/or MMP protease activities."}, "[3]": {"tested_on": "proteases cleaving Probe #102 in plasma (cathepsin L)", "assay": "Inhibitor profiling of Probe #102 cleavage in NASH and healthy plasma", "type": "biochemical, mice", "conditions": "for effect of inhibitor on Probe #102 signal: NASH or healthy samples", "protocol": "For this experiment, all plasma samples were prepared individually and diluted 1/10e in PBS with inhibitor added directly to the samples. Inhibitor was prepared at 15× concentration to final. Substrates were diluted in DI water at 18 uM, such that the final concentration on the plate would be 6 uM. All samples were prepared such that their last dilution on the plate would not affect the desired final concentration. 10 ul of each individual sample was pipetted into their corresponding wells, and the plate was then spun down in the centrifuge at 1500 RPM for 30 seconds to coat the bottom of each well with the sample. 5 ul of the 18 uM substrate solution was pipetted into each well being used on a 384 well plate, and then the plate was spun down in the centrifuge at 1500 rpm for 30 seconds. The plate was placed immediately in the plate reader at 37° C. for a 30-minute-long fluorescence kinetic read at 485/535 extended gain.\nTo assess the proteolytic cleavage pattern of Probe #102, samples were tested using a pool of broad inhibitors for serine, cysteine, threonine, MMP and aspartic protease family members (broad inhibitor) to assess general protease activity, AEBSF for serine proteases, E64 for cysteine proteases, CTSi for broad cathepsin inhibition of cathepsins L, S, K and B, or specific inhibitors for cathepsin K (L00625), for cathepsin L (SID) or cathepsin B (CA074)."}, "furin": {"target": "furin (Homo sapiens, UniProt P09958)", "sequence (P09958 108-794, species assumed)": "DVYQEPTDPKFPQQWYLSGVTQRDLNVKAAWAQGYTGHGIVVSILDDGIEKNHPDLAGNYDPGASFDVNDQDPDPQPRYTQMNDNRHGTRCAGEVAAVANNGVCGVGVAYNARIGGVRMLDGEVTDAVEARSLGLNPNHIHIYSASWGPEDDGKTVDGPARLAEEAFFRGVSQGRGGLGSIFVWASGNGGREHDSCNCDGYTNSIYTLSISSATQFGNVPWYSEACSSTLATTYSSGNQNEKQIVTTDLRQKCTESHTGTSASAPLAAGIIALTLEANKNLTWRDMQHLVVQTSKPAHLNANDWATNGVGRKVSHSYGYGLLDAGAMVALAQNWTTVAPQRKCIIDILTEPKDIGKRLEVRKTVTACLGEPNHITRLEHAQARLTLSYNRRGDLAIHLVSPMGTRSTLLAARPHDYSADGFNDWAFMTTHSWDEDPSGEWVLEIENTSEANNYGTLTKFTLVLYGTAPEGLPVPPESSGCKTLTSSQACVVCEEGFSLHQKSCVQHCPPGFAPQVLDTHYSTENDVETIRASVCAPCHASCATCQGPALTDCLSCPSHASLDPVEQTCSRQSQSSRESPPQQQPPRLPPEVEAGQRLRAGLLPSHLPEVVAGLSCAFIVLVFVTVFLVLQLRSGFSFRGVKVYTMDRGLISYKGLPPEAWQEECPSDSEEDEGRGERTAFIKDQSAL", "conditions": "solid-state fluorescence of precipitates after reaction of HPQF with furin; cited from earlier work"}, "[4]": {"tested_on": "carboxylesterase 1, phospholipase A2 and lipoprotein lipase", "assay": "Resorufin oleate substrate with recombinant enzymes spiked in human plasma", "type": "biochemical"}, "COVID-related proteases [5]": {"tested_on": "COVID-related proteases", "assay": "Ex vivo probe cleavage in COVID positive and negative swab samples", "type": "biochemical"}, "Granzyme B": {"target": "T1, Granzyme B (Homo sapiens, UniProt P10144)", "T1 construct": "from tissue; host or cells: swab samples", "T1 sequence (P10144 21-247)": "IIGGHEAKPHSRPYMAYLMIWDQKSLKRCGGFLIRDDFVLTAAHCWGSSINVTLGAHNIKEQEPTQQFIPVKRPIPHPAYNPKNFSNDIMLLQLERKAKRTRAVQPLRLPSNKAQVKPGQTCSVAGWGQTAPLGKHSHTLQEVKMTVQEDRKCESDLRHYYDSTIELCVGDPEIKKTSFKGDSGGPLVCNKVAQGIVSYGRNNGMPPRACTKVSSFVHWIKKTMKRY", "assay": "Inhibition experiments on Probe #647 signal in swabs (Granzyme B, caspases)", "type": "biochemical", "conditions": "healthy vs COVID samples"}}, "note": "Square brackets hold non-standard residues; d marks the D form. Primed or numbered codes have the meaning given here. Ends that are not written are not given here. CPQ2″ = quencher on the Lys side chain; FAM = fluorescent reporter; CPQ2(4) = quencher on Lys; PEG2″ = PEG2 spacer; CPQ2 = quencher"}
{"molecule": "Probe #8: Caspase centric probe (GVDVADGK; not fully specified; 5-FAM, CPQ2 quencher, PEG2, D-Lys-D-Lys-GC; MOD_RES (8)..(8) Lys modified with a CPQ2 quencher)", "values": [{"measurement": "contrast in Jo2 hepatitis model", "setting": "caspase activity", "value": "show contrast that is specific and sensitive to the Jo2 model"}]}
{"molecule": "Probe #12: Caspase centric probe (GDEVDGK; not fully specified; 5-FAM, CPQ2 quencher, PEG2, D-Lys-D-Lys-GC; MOD_RES (7)..(7) Lys modified with a CPQ2 quencher)", "values": [{"measurement": "contrast in Jo2 hepatitis model", "setting": "caspase activity", "value": "show contrast that is specific and sensitive to the Jo2 model"}]}
{"molecule": "Probe #409: the SARS CoV2 coronavirus substrate (GTSAVLQSGFRKGK(CPQ2); also: 5-FAM, position not given here, PEG2, position not given here)", "values": [{"measurement": "differential cleavage between COVID and healthy samples", "setting": "COVID-related proteases [1]", "value": "modest contrast in the K2 EDTA samples"}]}
{"molecule": "Probe #520: probe of Table 1 (GKPISLISSGK; not fully specified; 5FAM, CPQ2 quencher, PEG2-GC; MOD_RES (11)..(11) Lys modified with a CPQ2 quencher)", "values": [{"measurement": "differentiation among healthy, regression and NASH samples", "setting": "[2]", "value": "can differentiate"}]}
{"molecule": "Probe #462: MMP8 substrate (GKKAKRNALGK(CPQ2); also: FAM, position not given here, PEG2, position not given here)", "values": [{"measurement": "differential cleavage between COVID and healthy samples", "setting": "COVID-related proteases [1]", "value": "demonstrated contrast in both sets"}]}
{"molecule": "CCCNC(=O)[C@H]1O[C@@H]1C(=O)N[C@H](C(=O)N1CCC[C@H]1C(=O)O)[C@@H](C)CC", "note": "[CA074]", "values": [{"measurement": "effect of inhibitor on Probe #102 signal", "setting": "[3]", "value": "did not significantly decrease signal"}]}
{"molecule": "Probe #492: probe of Table 1; differentiates NASH in mouse plasma ({FAM}-GQRANSIRVTWGK(CPQ2(4))[PEG2″][dK][dK]GC; not fully specified; printed as (FAM)-GQRANSIRVTWG-K(CPQ2)-(PEG2)-DLys-DLys-GC; also: FAM, place not given here, D-Lys-D-Lys-GC, place not given here)", "values": [{"measurement": "differentiation among healthy, regression and NASH samples", "setting": "[2]", "value": "can differentiate"}]}
{"molecule": "O=c1[nH]c(-c2cc(Cl)ccc2O)nc2ccc(Cl)cc12", "note": "[Cl-HPQ]", "values": [{"measurement": "fluorescence enhancement", "setting": "furin", "value": "more than 60 fold"}]}
{"molecule": "Probe #428: probe of Table 1 ({FAM}-GDRRKKLTQGK(CPQ2(4))[PEG2″][dK][dK]GC; not fully specified; printed as (FAM)-GDRRKKLTQG-K(CPQ2)-(PEG2)-DLys-DLys-GC; also: FAM, place not given here, D-Lys-D-Lys-GC, place not given here)", "values": [{"measurement": "differentiation among healthy, regression and NASH samples", "setting": "[2]", "value": "can differentiate"}]}
{"molecule": "Probe #102: a CTSL sensing probe; fluorescent reporter and quencher ({FAM}-GKPILFFRLKGK(CPQ2″)[PEG2″][dK][dK]GC; also: fluorescent reporter and quencher, places not given here)", "values": [{"measurement": "differentiation among healthy, regression and NASH samples", "setting": "[2]", "value": "can differentiate"}, {"measurement": "protease whose activity the probe responds to", "setting": "[3]; individual cathepsin inhibitors, FIG. 30D-F", "value": "specifically responds to the activity of cathepsin L (CTSL)"}]}
{"molecule": "NCCc1ccc(S(=O)(=O)F)cc1", "note": "[AEBSF]", "values": [{"measurement": "decrease of RFU signal in NASH samples", "setting": "[3]; Probe #102 6 uM, NASH plasma diluted in PBS, 30-minute kinetic read at 37° C.", "value": 65, "unit": "%"}, {"measurement": "decrease of RFU signal in healthy samples", "setting": "[3]; Probe #102 6 uM, healthy plasma diluted in PBS, 30-minute kinetic read at 37° C.", "value": 60, "unit": "%"}]}
{"molecule": "Probe #84: Furin substrate (GRVKRGLAGK(CPQ2); also: 5-FAM, position not given here, PEG2, position not given here)", "values": [{"measurement": "differential cleavage between COVID and healthy samples", "setting": "COVID-related proteases [1]", "value": "demonstrated contrast in both sets"}]}
{"molecule": "Probe #18: Neutrophil elastase substrate (GAAPVGK(CPQ2); also: 5-FAM, position not given here, PEG2, position not given here)", "values": [{"measurement": "differential cleavage between COVID and healthy samples", "setting": "COVID-related proteases [1]", "value": "demonstrated contrast in both sets"}]}
{"molecule": "CN1CCN(c2nc(-c3ccc(C(=O)NC4(C(=O)NCC#N)CCCCC4)cc3)cs2)CC1", "note": "[Probe L006235]", "values": [{"measurement": "effect of inhibitor on Probe #102 signal", "setting": "[3]", "value": "did not significantly decrease signal"}]}
{"molecule": "Resorufin oleate", "values": [{"measurement": "suitability as substrate for enzyme detection", "setting": "[4]", "value": "promising for detection of broad range of enzymes"}]}
{"molecule": "Probe #96: probe of Table 1 ({FAM}-GRPLALWESQGK(CPQ2(4))[PEG2″][dK]GC; not fully specified; printed as (FAM)-GRPLALWESQG-K(CPQ2)-PEG2-k-GC; also: FAM, place not given here, D-Lys-GC, place not given here)", "values": [{"measurement": "differentiation among healthy, regression and NASH samples", "setting": "[2]", "value": "can differentiate"}]}
{"molecule": "CC(C)C[C@H](NC(=O)[C@H]1O[C@@H]1C(=O)O)C(=O)NCCCCN=C(N)N", "note": "[Probe E64]", "values": [{"measurement": "effect of inhibitor on Probe #102 signal", "setting": "[3]", "value": "decreased NASH signal significantly"}]}
{"molecule": "CCCC(=O)O", "note": "[butyrate]", "values": [{"measurement": "suitability as substrate for enzyme detection", "setting": "[4]", "value": "promising for detection of broad range of enzymes"}]}
{"molecule": "Probe #647: Caspase centric probe; signal measures Granzyme B activity (GAIEPDSGGK(CPQ2); also: 5FAM, position not given here, PEG2, position not given here, D-Lys-D-Lys-GC-NH2, position not given here)", "values": [{"measurement": "contrast in Jo2 hepatitis model", "setting": "caspase activity", "value": "show contrast that is specific and sensitive to the Jo2 model"}, {"measurement": "differentiation among healthy, regression and NASH samples", "setting": "[2]", "value": "can differentiate"}, {"measurement": "active samples among COVID+", "setting": "COVID-related proteases [5]; adjusted RFU across timepoints", "value": 7, "unit": "samples"}, {"measurement": "active samples among COVID−", "setting": "COVID-related proteases [5]; adjusted RFU across timepoints", "value": 1, "unit": "sample"}, {"measurement": "differentiation between COVID+ and COVID− samples", "setting": "COVID-related proteases [5]; swab samples in saline", "value": "key differentiator"}, {"measurement": "protease measured by probe signal", "setting": "Granzyme B", "value": "measures the activity of protease Granzyme B"}]}
